This is an account of results in patent US12077537B2 (Gilead Sciences, Inc., priority 2020, dated 2024).

This test concerns HIV-IIIb. In words: Antiviral assay in MT4 cells. The test is classed as cell-based. The note with it: Human immunodeficiency virus 1, MT4, 120 h; MT-4 cells mixed with HIV-IIIb at m.o.i. 0.003; 5 days at 37° C.; CellTiter-Glo luminescence; 50% decrease in signal, a measure of HIV-1 replication. The method, boiled down: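 Compound, tested at ten 3-fold dilutions in quadruplicate in 10% FBS medium, received MT-4 cells pre-mixed 1 hour with HIV-IIIb (m.o.i. 0.003). Protection was read as luminescent cell viability (CellTiter-Glo) after 5 days' culture at 37° C.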
Background: ATP-based viability assays read luminescence as a measure of living cells.

What is called EC50 is the concentration at which the effect is half-maximal. Read a low EC50 as a more potent agent. The compound `O=C(Cn1nc(C(F)(F)F)c2c1C(F)(F)[C@@H]1C[C@H]21)N[C@@H](Cc1cc(F)cc(F)c1)c1nc2nc(-c3ccc(N4CCOCC4)cc3)sc2cc1-c1ccc2c(c1)C(=O)NC2` [Compound 144, 2-((3bS,4aR)-5,5-difluoro-3-(trifluoromethyl)-3b,4,4a,5-tetrahydro-1H-cyclopropa[3,4]cyclopenta[1,2-c]pyrazol-1-yl)-N—((S)-2-(3,5-difluorophenyl)-1-(2-(4-morpholinophenyl)-6-(3-oxoisoindolin-5-yl)thiazolo[4,5-b]pyridin-5-yl)ethyl)acetamide] had an EC50 of 44.4 nM. Compound `CC(C)(C)OC(=O)N1CCN(c2ccc(-c3nc4nc([C@H](Cc5cc(F)cc(F)c5)NC(=O)Cn5nc(C(F)(F)F)c6c5C(F)(F)[C@@H]5C[C@H]65)c(-c5ccc6c(c5)C(=O)NC6)cc4s3)cc2)CC1` [Compound 145, tert-butyl 4-(4-(5-((S)-1-(2-((3bS,4aR)-5,5-difluoro-3-(trifluoromethyl)-3b,4,4a,5-tetrahydro-1H-cyclopropa[3,4]cyclopenta[1,2-c]pyrazol-1-yl)acetamido)-2-(3,5-difluorophenyl)ethyl)-6-(3-oxoisoindolin-5-yl)thiazolo[4,5-b]pyridin-2-yl)phenyl)piperazine-1-carboxylate] returned a 50% effective concentration (EC50) of 370 nM. In turn, `O=C(Cn1nc(C(F)(F)F)c2c1C(F)(F)[C@@H]1C[C@H]21)N[C@@H](Cc1cc(F)cc(F)c1)c1nc2nc(-c3ccc(N4CCNCC4)cc3)sc2cc1-c1ccc2c(c1)C(=O)NC2` [Compound 147, 2-((3bS,4aR)-5,5-difluoro-3-(trifluoromethyl)-3b,4,4a,5-tetrahydro-1H-cyclopropa[3,4]cyclopenta[1,2-c]pyrazol-1-yl)-N—((S)-2-(3,5-difluorophenyl)-1-(6-(3-oxoisoindolin-5-yl)-2-(4-(piperazin-1-yl)phenyl)thiazolo[4,5-b]pyridin-5-yl)ethyl)acetamide] yielded a 50% effective concentration (EC50) of 37 nM. In turn, `NC(=O)c1cc(-c2cc3sc(-c4cncnc4)nc3nc2[C@H](Cc2cc(F)cc(F)c2)NC(=O)Cn2nc(C(F)(F)F)c3c2C(F)(F)[C@@H]2C[C@H]32)ccc1F` [Compound 148, 5-(5-((S)-1-(2-((3bS,4aR)-5,5-difluoro-3-(trifluoromethyl)-3b,4,4a,5-tetrahydro-1H-cyclopropa[3,4]cyclopenta[1,2-c]pyrazol-1-yl)acetamido)-2-(3,5-difluorophenyl)ethyl)-2-(pyrimidin-5-yl)thiazolo[4,5-b]pyridin-6-yl)-2-fluorobenzamide] showed an EC50 of 90.4 nM. Regarding `NC(=O)c1cc(-c2cc3sc(-c4cn[nH]c4)nc3nc2[C@H](Cc2cc(F)cc(F)c2)NC(=O)Cn2nc(C(F)(F)F)c3c2C(F)(F)[C@@H]2C[C@H]32)ccc1F` [Compound 149, 5-(5-((S)-1-(2-((3bS,4aR)-5,5-difluoro-3-(trifluoromethyl)-3b,4,4a,5-tetrahydro-1H-cyclopropa[3,4]cyclopenta[1,2-c]pyrazol-1-yl)acetamido)-2-(3,5-difluorophenyl)ethyl)-2-(1H-pyrazol-4-yl)thiazolo[4,5-b]pyridin-6-yl)-2-fluorobenzamide], it took 106 nM to reach a half-maximal effect (EC50). The EC50 values of the last two compounds are within 1.5-fold of each other. In the case of `CN(C)C1CN(c2nc3nc([C@H](Cc4cc(F)cc(F)c4)NC(=O)Cn4nc(C(F)(F)F)c5c4C(F)(F)[C@@H]4C[C@H]54)c(-c4cccc5c(NS(C)(=O)=O)nn(C)c45)cc3s2)C1` [Compound 150, 2-((3bS,4aR)-5,5-difluoro-3-(trifluoromethyl)-3b,4,4a,5-tetrahydro-1H-cyclopropa[3,4]cyclopenta[1,2-c]pyrazol-1-yl)-N—((S)-2-(3,5-difluorophenyl)-1-(2-(3-(dimethylamino)azetidin-1-yl)-6-(1-methyl-3-(methylsulfonamido)-1H-indazol-7-yl)thiazolo[4,5-b]pyridin-5-yl)ethyl)acetamide] it was 8 nM. Compound `CN(C)c1ncc(-c2nc3nc([C@H](Cc4cc(F)cc(F)c4)NC(=O)Cn4nc(C(F)(F)F)c5c4C(F)(F)[C@@H]4C[C@H]54)c(-c4cccc5c(NS(C)(=O)=O)nn(C)c45)cc3s2)cn1` [Compound 151, 2-((3bS,4aR)-5,5-difluoro-3-(trifluoromethyl)-3b,4,4a,5-tetrahydro-1H-cyclopropa[3,4]cyclopenta[1,2-c]pyrazol-1-yl)-N—((S)-2-(3,5-difluorophenyl)-1-(2-(2-(dimethylamino)pyrimidin-5-yl)-6-(1-methyl-3-(methylsulfonamido)-1H-indazol-7-yl)thiazolo[4,5-b]pyridin-5-yl)ethyl)acetamide] returned an EC50 of 14.1 nM.

`O=C(Cn1nc(C(F)(F)F)c2c1CCCC2)N[C@@H](Cc1ccccc1)c1nc2ccccc2[nH]1` [Example 1, (S)—N-(1-(1H-benzo[d]imidazol-2-yl)-2-phenylethyl)-2-(3-(trifluoromethyl)-4,5,6,7-tetrahydro-1H-indazol-1-yl)acetamide] yielded an EC50 of 29700 nM. On to `N#Cc1cc(-c2cc3sc(N4CCOCC4)nc3nc2[C@H](Cc2cc(F)cc(F)c2)NC(=O)Cn2nc(C(F)F)c3c2C(F)(F)CCC3(F)F)ccc1F` [Example 3K, (S)—N-(1-(6-(3-cyano-4-fluorophenyl)-2-morpholinothiazolo[4,5-b]pyridin-5-yl)-2-(3,5-difluorophenyl)ethyl)-2-(3-(difluoromethyl)-4,4,7,7-tetrafluoro-4,5,6,7-tetrahydro-1H-indazol-1-yl)acetamide], for which the EC50 is 1800 nM.

For `CN(C)CCNc1nc2nc([C@H](Cc3cc(F)cc(F)c3)NC(=O)Cn3nc(C(F)(F)F)c4c3C(F)(F)[C@@H]3C[C@H]43)c(-c3cccc4c(NS(C)(=O)=O)nn(C)c34)cc2s1` [Example 65, 2-((3bS,4aR)-5,5-difluoro-3-(trifluoromethyl)-3b,4,4a,5-tetrahydro-1H-cyclopropa[3,4]cyclopenta[1,2-c]pyrazol-1-yl)-N—((S)-2-(3,5-difluorophenyl)-1-(2-((2-(dimethylamino)ethyl)amino)-6-(1-methyl-3-(methylsulfonamido)-1H-indazol-7-yl)thiazolo[4,5-b]pyridin-5-yl)ethyl)acetamide], it took 23.6 nM to reach a half-maximal effect (EC50). In the case of `CN(C)C1CCN(c2nc3nc([C@H](Cc4cc(F)cc(F)c4)NC(=O)Cn4nc(C(F)(F)F)c5c4C(F)(F)[C@@H]4C[C@H]54)c(-c4cccc5c(NS(C)(=O)=O)nn(C)c45)cc3s2)CC1` [Example 66, 2-((3bS,4aR)-5,5-difluoro-3-(trifluoromethyl)-3b,4,4a,5-tetrahydro-1H-cyclopropa[3,4]cyclopenta[1,2-c]pyrazol-1-yl)-N—((S)-2-(3,5-difluorophenyl)-1-(2-(4-(dimethylamino)piperidin-1-yl)-6-(1-methyl-3-(methylsulfonamido)-1H-indazol-7-yl)thiazolo[4,5-b]pyridin-5-yl)ethyl)acetamide], the concentration giving a half-maximal response (EC50) came to 22.4 nM. In the case of `CC(CN(C)C)Nc1nc2nc([C@H](Cc3cc(F)cc(F)c3)NC(=O)Cn3nc(C(F)(F)F)c4c3C(F)(F)[C@@H]3C[C@H]43)c(-c3cccc4c(NS(C)(=O)=O)nn(C)c34)cc2s1` (stereo partly drawn) [Example 67, 2-((3bS,4aR)-5,5-difluoro-3-(trifluoromethyl)-3b,4,4a,5-tetrahydro-1H-cyclopropa[3,4]cyclopenta[1,2-c]pyrazol-1-yl)-N-((1S)-2-(3,5-difluorophenyl)-1-(2-((1-(dimethylamino)propan-2-yl)amino)-6-(1-methyl-3-(methylsulfonamido)-1H-indazol-7-yl)thiazolo[4,5-b]pyridin-5-yl)ethyl)acetamide], the EC50 worked out at 27.3 nM. Compound `CCN1CCN(c2nc3nc([C@H](Cc4cc(F)cc(F)c4)NC(=O)Cn4nc(C(F)(F)F)c5c4C(F)(F)[C@@H]4C[C@H]54)c(-c4cccc5c(NS(C)(=O)=O)nn(C)c45)cc3s2)CC1` [Example 68, 2-((3bS,4aR)-5,5-difluoro-3-(trifluoromethyl)-3b,4,4a,5-tetrahydro-1H-cyclopropa[3,4]cyclopenta[1,2-c]pyrazol-1-yl)-N—((S)-2-(3,5-difluorophenyl)-1-(2-(4-ethylpiperazin-1-yl)-6-(1-methyl-3-(methylsulfonamido)-1H-indazol-7-yl)thiazolo[4,5-b]pyridin-5-yl)ethyl)acetamide] yielded an EC50 of 6.7 nM. Compared with the last compound, the EC50 is about 4.1-fold lower. In the case of `COCCNc1nc2nc([C@H](Cc3cc(F)cc(F)c3)NC(=O)Cn3nc(C(F)(F)F)c4c3C(F)(F)[C@@H]3C[C@H]43)c(-c3cccc4c(NS(C)(=O)=O)nn(C)c34)cc2s1` [Example 69, 2-((3bS,4aR)-5,5-difluoro-3-(trifluoromethyl)-3b,4,4a,5-tetrahydro-1H-cyclopropa[3,4]cyclopenta[1,2-c]pyrazol-1-yl)-N—((S)-2-(3,5-difluorophenyl)-1-(2-((2-methoxyethyl)amino)-6-(1-methyl-3-(methylsulfonamido)-1H-indazol-7-yl)thiazolo[4,5-b]pyridin-5-yl)ethyl)acetamide] it was 9.2 nM; in that of `Cn1nc(NS(C)(=O)=O)c2cccc(-c3cc4sc(NCC5(O)CC5)nc4nc3[C@H](Cc3cc(F)cc(F)c3)NC(=O)Cn3nc(C(F)(F)F)c4c3C(F)(F)[C@@H]3C[C@H]43)c21` [Example 70, 2-((3bS,4aR)-5,5-difluoro-3-(trifluoromethyl)-3b,4,4a,5-tetrahydro-1H-cyclopropa[3,4]cyclopenta[1,2-c]pyrazol-1-yl)-N—((S)-2-(3,5-difluorophenyl)-1-(2-(((1-hydroxycyclopropyl)methyl)amino)-6-(1-methyl-3-(methylsulfonamido)-1H-indazol-7-yl)thiazolo[4,5-b]pyridin-5-yl)ethyl)acetamide], 13.8 nM; in that of `Cn1nc(NS(C)(=O)=O)c2cccc(-c3cc4sc(NCc5ncc[nH]5)nc4nc3[C@H](Cc3cc(F)cc(F)c3)NC(=O)Cn3nc(C(F)(F)F)c4c3C(F)(F)[C@@H]3C[C@H]43)c21` [Example 71, N—((S)-1-(2-(((1H-imidazol-2-yl)methyl)amino)-6-(1-methyl-3-(methylsulfonamido)-1H-indazol-7-yl)thiazolo[4,5-b]pyridin-5-yl)-2-(3,5-difluorophenyl)ethyl)-2-((3bS,4aR)-5,5-difluoro-3-(trifluoromethyl)-3b,4,4a,5-tetrahydro-1H-cyclopropa[3,4]cyclopenta[1,2-c]pyrazol-1-yl)acetamide], 52.2 nM.
